Reference: the supplement of paper PMC11451515

Experiments:
Settings in all cases: 48 h
NOMO1 [1] = test: cell viability relative to DMSO control; higher = less cytotoxic
In short: (§1)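 Before seeding, each leukemia line was adapted for at least four passages in each medium. NOMO1 or SEM cells (500 cells/well) and P12-Ichikawa cells (1000 cells/well) went into 1536-well plates at 5 μl, then received library compounds in DMSO by pin dosing across 11 threefold concentrations, 47 μM to 0.79 nM. Readout was CellTiter-Glo One luminescence after 48 h at 37°C, and viability is given as a per-plate percentage of DMSO wells, with cell-free wells as background.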

P12-Ichikawa [2] = test: as above
In short: as §1

SEM cells [3] = test: as above
In short: as §1

NOMO1 [4] = test: AUC of viability dose-response curve (% viability x log10 dose units); higher = less sensitive
In short: (§2)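 In 1536-well plates, leukemia cells adapted to each medium (500 or 1000 cells/well) were exposed for 48 h at 37°C to library compounds in DMSO across 11 threefold doses, 47 μM down to 0.79 nM. Viability was read by CellTiter-Glo One luminescence and normalised per plate to DMSO and cell-free wells. A four-parameter log-logistic fit over log10 doses was integrated by trapezoidal rule. This yielded the area under the curve, with over-full-viability curves scaled and quality-control failures dropped.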

P12-Ichikawa [5] = test: as above
In short: as §2

SEM cells [6] = test: as above
In short: as §2

[7] = HPLM + 10% dialyzed FBS, 0.000781 µM
[8] = HPLM + 10% dialyzed FBS, 0.00234 µM
[9] = HPLM + 10% dialyzed FBS, 0.00702 µM
[10] = HPLM + 10% dialyzed FBS, 0.0211 µM
[11] = HPLM + 10% dialyzed FBS, 0.0632 µM
[12] = HPLM + 10% dialyzed FBS, 0.19 µM
[13] = HPLM + 10% dialyzed FBS, 0.569 µM
[14] = HPLM + 10% dialyzed FBS, 1.71 µM
[15] = HPLM + 10% dialyzed FBS, 5.12 µM
[16] = HPLM + 10% dialyzed FBS, 15.4 µM
[17] = HPLM + 10% dialyzed FBS, 46.1 µM
[18] = RPMI 5 mM glucose + 10% FBS, 0.000781 µM
[19] = RPMI 5 mM glucose + 10% FBS, 0.00234 µM
[20] = RPMI 5 mM glucose + 10% FBS, 0.00702 µM
[21] = RPMI 5 mM glucose + 10% FBS, 0.0211 µM
[22] = RPMI 5 mM glucose + 10% FBS, 0.0632 µM
[23] = RPMI 5 mM glucose + 10% FBS, 0.19 µM
[24] = RPMI 5 mM glucose + 10% FBS, 0.569 µM
[25] = RPMI 5 mM glucose + 10% FBS, 1.71 µM
[26] = RPMI 5 mM glucose + 10% FBS, 5.12 µM
[27] = RPMI 5 mM glucose + 10% FBS, 15.4 µM
[28] = RPMI 5 mM glucose + 10% FBS, 46.1 µM
[29] = RPMI 5 mM glucose + 10% dialyzed FBS, 0.000781 µM
[30] = RPMI 5 mM glucose + 10% dialyzed FBS, 0.00234 µM
[31] = RPMI 5 mM glucose + 10% dialyzed FBS, 0.00702 µM
[32] = RPMI 5 mM glucose + 10% dialyzed FBS, 0.0211 µM
[33] = RPMI 5 mM glucose + 10% dialyzed FBS, 0.0632 µM
[34] = RPMI 5 mM glucose + 10% dialyzed FBS, 0.19 µM
[35] = RPMI 5 mM glucose + 10% dialyzed FBS, 0.569 µM
[36] = RPMI 5 mM glucose + 10% dialyzed FBS, 1.71 µM
[37] = RPMI 5 mM glucose + 10% dialyzed FBS, 5.12 µM
[38] = RPMI 5 mM glucose + 10% dialyzed FBS, 15.4 µM
[39] = RPMI 5 mM glucose + 10% dialyzed FBS, 46.1 µM
[40] = RPMI 5 mM glucose + 10% dialyzed FBS

Question: What does the source list for `CCC1=C(C)CN(C(=O)NCCc2ccc(S(=O)(=O)NC(=O)N[C@H]3CC[C@H](C)CC3)cc2)C1=O`?
Answer: cell viability (NOMO1 [1]; [7]): 97.4%; cell viability (NOMO1 [1]; [8]): 93.3%; cell viability (NOMO1 [1]; [9]): 105%; cell viability (NOMO1 [1]; [10]): 102%; cell viability (NOMO1 [1]; [11]): 104%; cell viability (NOMO1 [1]; [12]): 112%; cell viability (NOMO1 [1]; [13]): 101%; cell viability (NOMO1 [1]; [14]): 108%; cell viability (NOMO1 [1]; [15]): 87%; cell viability (NOMO1 [1]; [16]): 83.3%; cell viability (NOMO1 [1]; [17]): 116%; cell viability (NOMO1 [1]; [18]): 86.3%; cell viability (NOMO1 [1]; [19]): 86.4%; cell viability (NOMO1 [1]; [20]): 91.1%; cell viability (NOMO1 [1]; [21]): 98.4%; cell viability (NOMO1 [1]; [22]): 88.3%; cell viability (NOMO1 [1]; [23]): 100%; cell viability (NOMO1 [1]; [24]): 90.3%; cell viability (NOMO1 [1]; [25]): 89.3%; cell viability (NOMO1 [1]; [26]): 95.4%; cell viability (NOMO1 [1]; [27]): 91.4%; cell viability (NOMO1 [1]; [28]): 95.3%; cell viability (NOMO1 [1]; [29]): 82.2%; cell viability (NOMO1 [1]; [30]): 97.7%; cell viability (NOMO1 [1]; [31]): 97.6%; cell viability (NOMO1 [1]; [32]): 92.3%; cell viability (NOMO1 [1]; [33]): 99.5%; cell viability (NOMO1 [1]; [34]): 93%; cell viability (NOMO1 [1]; [35]): 96.3%; cell viability (NOMO1 [1]; [36]): 94.1%; cell viability (NOMO1 [1]; [37]): 99.3%; cell viability (NOMO1 [1]; [38]): 92.5%; cell viability (NOMO1 [1]; [39]): 104%; cell viability (P12-Ichikawa [2]; [7]): 94.6%; cell viability (P12-Ichikawa [2]; [8]): 102%; cell viability (P12-Ichikawa [2]; [9]): 98.9%; cell viability (P12-Ichikawa [2]; [10]): 104%; cell viability (P12-Ichikawa [2]; [11]): 107%; cell viability (P12-Ichikawa [2]; [12]): 104%; cell viability (P12-Ichikawa [2]; [13]): 102%; cell viability (P12-Ichikawa [2]; [14]): 105%; cell viability (P12-Ichikawa [2]; [15]): 97.7%; cell viability (P12-Ichikawa [2]; [16]): 109%; cell viability (P12-Ichikawa [2]; [17]): 109%; cell viability (P12-Ichikawa [2]; [18]): 89.5%; cell viability (P12-Ichikawa [2]; [19]): 101%; cell viability (P12-Ichikawa [2]; [20]): 95.5%; cell viability (P12-Ichikawa [2]; [21]): 92.9%; cell viability (P12-Ichikawa [2]; [22]): 95.3%; cell viability (P12-Ichikawa [2]; [23]): 111%; cell viability (P12-Ichikawa [2]; [24]): 107%; cell viability (P12-Ichikawa [2]; [25]): 101%; cell viability (P12-Ichikawa [2]; [26]): 87.3%; cell viability (P12-Ichikawa [2]; [27]): 113%; cell viability (P12-Ichikawa [2]; [28]): 115%; cell viability (P12-Ichikawa [2]; [29]): 90.7%; cell viability (P12-Ichikawa [2]; [30]): 86%; cell viability (P12-Ichikawa [2]; [31]): 90.7%; cell viability (P12-Ichikawa [2]; [32]): 92.5%; cell viability (P12-Ichikawa [2]; [33]): 103%; cell viability (P12-Ichikawa [2]; [34]): 104%; cell viability (P12-Ichikawa [2]; [35]): 98.5%; cell viability (P12-Ichikawa [2]; [36]): 98.8%; cell viability (P12-Ichikawa [2]; [37]): 94.8%; cell viability (P12-Ichikawa [2]; [38]): 104%; cell viability (P12-Ichikawa [2]; [39]): 108%; cell viability (SEM cells [3]; [7]): 78.7%; cell viability (SEM cells [3]; [8]): 91.5%; cell viability (SEM cells [3]; [9]): 93.2%; cell viability (SEM cells [3]; [10]): 93.3%; cell viability (SEM cells [3]; [11]): 86.4%; cell viability (SEM cells [3]; [12]): 104%; cell viability (SEM cells [3]; [13]): 103%; cell viability (SEM cells [3]; [14]): 109%; cell viability (SEM cells [3]; [15]): 114%; cell viability (SEM cells [3]; [16]): 104%; cell viability (SEM cells [3]; [17]): 116%; cell viability (SEM cells [3]; [18]): 81.1%; cell viability (SEM cells [3]; [19]): 92.2%; cell viability (SEM cells [3]; [20]): 95%; cell viability (SEM cells [3]; [21]): 85.5%; cell viability (SEM cells [3]; [22]): 93%; cell viability (SEM cells [3]; [23]): 92.6%; cell viability (SEM cells [3]; [24]): 94.8%; cell viability (SEM cells [3]; [25]): 100%; cell viability (SEM cells [3]; [26]): 94.7%; cell viability (SEM cells [3]; [27]): 92.6%; cell viability (SEM cells [3]; [28]): 94.7%; cell viability (SEM cells [3]; [29]): 94.9%; cell viability (SEM cells [3]; [30]): 87.6%; cell viability (SEM cells [3]; [31]): 101%; cell viability (SEM cells [3]; [32]): 86.2%; cell viability (SEM cells [3]; [33]): 93.7%; cell viability (SEM cells [3]; [34]): 94.8%; cell viability (SEM cells [3]; [35]): 96.1%; cell viability (SEM cells [3]; [36]): 87.7%; cell viability (SEM cells [3]; [37]): 94.3%; cell viability (SEM cells [3]; [38]): 96%; cell viability (SEM cells [3]; [39]): 94.1%; AUC of viability dose-response curve (NOMO1 [4]; HPLM + 10% dialyzed FBS): 475; AUC of viability dose-response curve (NOMO1 [4]; RPMI 5 mM glucose + 10% FBS): 439; AUC of viability dose-response curve (NOMO1 [4]; [40]): 457; AUC of viability dose-response curve (P12-Ichikawa [5]; HPLM + 10% dialyzed FBS): 458; AUC of viability dose-response curve (P12-Ichikawa [5]; RPMI 5 mM glucose + 10% FBS): 442; AUC of viability dose-response curve (P12-Ichikawa [5]; [40]): 458; AUC of viability dose-response curve (SEM cells [6]; HPLM + 10% dialyzed FBS): 417; AUC of viability dose-response curve (SEM cells [6]; RPMI 5 mM glucose + 10% FBS): 443; AUC of viability dose-response curve (SEM cells [6]; [40]): 445
